The record followed here is patent US11566030B2, “Substituted 2,6-dihydropyrrolo[3,4-c]pyrazoles as pyruvate kinase activators” (priority 2021, dated 2023).

Like-named read-outs stand apart in the source and are kept apart here.

The target of this test is T1, Human pyruvate kinase R (PKR) (Homo sapiens, UniProt P30613).
T1 construct: Human pyruvate kinase R (PKR), residues 14-574; 6xHis-8xArg-SUMO (N, cleaved yes); host or cells: E. coli
In words: Biochemical assay for activation of pyruvate kinase R (Kinase-Glo luminescence, ATP generation). As to conditions: for Emax: read-out: PKR % activation, maximal activation level achieved with each compound relative to the activation level achieved by AG-348 @ 10 μM. On the procedure: Human pyruvate kinase R (PKR), residues 14-574, and human pyruvate kinase M2, residues 1-531, were cloned into expression plasmids and obtained from ATUM Bio (Newark, Calif.). Proteins were translated as fusions with 6×-His,8×-Arg, and SUMO at the N-terminus. A third construct of human PKR was truncated, residues 50-574, and similarly cloned for use in crystallography experiments. All proteins were cloned, expressed in E. coli, and purified using similar protocols. Cells were grown at 30° C. in Luria-Bertani broth supplemented with 0.4% glucose to OD600=0.8 and induced with 0.4 mM IPTG at 16° C. for 18 hours. Cells were harvested by centrifugation, resuspended in 50 mM potassium phosphate pH 8.0, 500 mM NaCl, 25 mM imidazole pH 8.0, and 3 mM β-mercaptoethanol. Cells were lysed using a LM20 microfluidizer from Microfluidics (Westwood, Mass.). The crude lysate was immediately supplemented with 0.2 mM phenylmethylsulfonyl fluoride (PMSF) and centrifuged at 20,000 g for 20 minutes. The soluble fraction was subsequently incubated with 2 mL Ni-NTA (GE Healthcare) per 1,000 ODs for 1 hour at 4° C. Following incubation with the Ni-NTA resin, lysate was removed by pelleting resin at 2,500 g for 3 minutes and washed 3 times with 9 bed volumes of 50 mM potassium phosphate pH 8.0, 500 mM NaCl, 25 mM imidazole, and 3 mM β-mercaptoethanol. Following the batch wash Ni-NTA resin was loaded onto a gravity column and His-tagged protein was eluted with 6 bed volumes of 10 mM Tris/HCl pH 8.0, 200 mM NaCl, 500 mM imidazole, and 3 mM β-mercaptoethanol. Eluted protein was dialyzed overnight against 10 mM Tris/HCl pH 8.0, 200 mM NaCl, and 1 mM DTT and the 6×-His-8×-Arg-SUMO-tag was cleaved using a 20:1 molar ratio of protein: 3C protease. The protein was purified by anion exchange chromatography on a HiTrapQ or MonoQ 10/100 GL column (GE Healthcare) via a linear NaCl gradient and twice by size exclusion chromatography using a Superdex S200 26/60 column (GE Healthcare) run in 10 mM Tris/HCl pH 8.0, 200 mM NaCl, 10 mM MgCl2, 1 mM DTT. Proteins were concentrated to −12 mg/mL for crystallization and flash frozen for storage.
Biochemical assay for Activation of Pyruvate Kinase R
Activation of pyruvate kinase R (PKR) and pyruvate kinase M2 (PKM2) were measured using a luminescence based measurement of ATP generation and the Kinase-Glo luminescent kinase reagent kit.
A general note: Kinase-Glo measures the ATP left after a reaction by luminescence.

Where [1] appears, read: PKR AC50 (nM), 0.1 nM PKR, 0.3 mM ADP, 0.1 mM PEP, 1% DMSO.

The term AC50 denotes the concentration giving half of the maximal activity seen. High values mean activity only at high concentration, low ones activity at low concentration.

T1 sequence (P30613 14-574): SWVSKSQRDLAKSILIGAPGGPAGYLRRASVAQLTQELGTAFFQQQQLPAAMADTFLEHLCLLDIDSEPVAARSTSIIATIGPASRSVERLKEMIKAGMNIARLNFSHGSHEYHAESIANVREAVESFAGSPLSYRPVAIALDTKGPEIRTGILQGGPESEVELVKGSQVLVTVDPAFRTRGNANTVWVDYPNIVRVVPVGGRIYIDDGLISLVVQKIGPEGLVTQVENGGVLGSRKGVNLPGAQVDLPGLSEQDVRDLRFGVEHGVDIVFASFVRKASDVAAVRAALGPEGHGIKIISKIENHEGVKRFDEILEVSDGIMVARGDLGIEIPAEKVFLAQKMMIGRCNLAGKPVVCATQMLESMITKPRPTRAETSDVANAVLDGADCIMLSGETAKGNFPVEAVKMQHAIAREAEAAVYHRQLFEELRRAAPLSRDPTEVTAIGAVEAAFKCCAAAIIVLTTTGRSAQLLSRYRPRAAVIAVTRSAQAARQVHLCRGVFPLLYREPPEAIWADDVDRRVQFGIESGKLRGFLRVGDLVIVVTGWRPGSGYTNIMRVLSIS

In the case of `COCCn1ccc(S(=O)(=O)n2cc3c(n2)CN(C(=O)[C@@H](CO)c2ccccc2F)C3)n1` [Compound 45, (2R)-2-(2-fluorophenyl)-3-hydroxy-1-[2-[1-(2-methoxyethyl)pyrazol-3-ylsulfonyl]-4H,6H-pyrrolo[3,4-c]pyrazol-5-yl]propan-1-one], the Emax came out at 53%. This compound also yielded an AC50 under setting [1] of 1300 nM.

As for `O=C([C@@H](CO)c1ccccc1Cl)N1Cc2cn(S(=O)(=O)c3cnn(CC(F)F)c3)nc2C1` [Compound 46, (R)-2-(2-chlorophenyl)-1-(2-((1-(2,2-difluoroethyl)-1H-pyrazol-4-yl)sulfonyl)-2,6-dihydropyrrolo[3,4-c]pyrazol-5(4H)-yl)-3-hydroxypropan-1-one], the activity was half-maximal at 150 nM (AC50) and the Emax worked out at 191%.

As to `O=C([C@H](CO)c1ccccc1Cl)N1Cc2cn(S(=O)(=O)c3cnn(CC(F)(F)F)c3)nc2C1` [Compound 47, (2S)-2-(2-chlorophenyl)-3-hydroxy-1-[2-[1-(2,2,2-trifluoroethyl)pyrazol-4-ylsulfonyl]-4H,6H-pyrrolo[3,4-c]pyrazol-5-yl]propan-1-one], the Emax turned out to be 108%. Moreover, the AC50 under setting [1] came out at 10 nM.

Take `O=C([C@@H](CO)c1ccccc1Cl)N1Cc2cn(S(=O)(=O)c3cnn(CC(F)(F)F)c3)nc2C1` [Compound 48, (2R)-2-(2-chlorophenyl)-3-hydroxy-1-[2-[1-(2,2,2-trifluoroethyl)pyrazol-4-ylsulfonyl]-4H,6H-pyrrolo[3,4-c]pyrazol-5-yl]propan-1-one]: the Emax is 111%. Also, half-maximal activity under setting [1] (AC50) was put at 580 nM.

For `C[C@@H](O)[C@@H](C(=O)N1Cc2cn(S(=O)(=O)c3cnn(CC(F)(F)F)c3)nc2C1)c1ccccc1` [Compound 49, (2S,3R)-3-hydroxy-2-phenyl-1-{2-[1-(2,2,2-trifluoroethyl)pyrazol-4-ylsulfonyl]-4H,6H-pyrrolo[3,4-c]pyrazol-5-yl}butan-1-one], the Emax was 113%. Also, under setting [1], the AC50 was 71 nM.

In the case of `C[C@H](O)[C@@H](C(=O)N1Cc2cn(S(=O)(=O)c3cnn(CC(F)(F)F)c3)nc2C1)c1ccccc1` [Compound 50, (2S,3S)-3-hydroxy-2-phenyl-1-{2-[1-(2,2,2-trifluoroethyl)pyrazol-4-ylsulfonyl]-4H,6H-pyrrolo[3,4-c]pyrazol-5-yl}butan-1-one], the Emax came out at 89%. Under setting [1], this compound came in with an AC50 of 82 nM.

As for `O=C([C@H](O)c1ccccc1F)N1Cc2cn(S(=O)(=O)c3ccn(CC(F)F)n3)nc2C1` [Compound 51, (2R)-1-{2-[1-(2,2-difluoroethyl)pyrazol-3-ylsulfonyl]-4H,6H-pyrrolo[3,4-c]pyrazol-5-yl}-2-(2-fluorophenyl)-2-hydroxyethanone], half-maximal activity (AC50) was put at 140 nM and the Emax is 112%.

`O=C(N1Cc2cn(S(=O)(=O)c3cnn(CC(F)(F)F)c3)nc2C1)C1(c2ncccc2Cl)COC1` [Compound 52, (3-(3-chloropyridin-2-yl)oxetan-3-yl)(2-((1-(2,2,2-trifluoroethyl)-1H-pyrazol-4-yl)sulfonyl)-2,6-dihydropyrrolo[3,4-c]pyrazol-5(4H)-yl)methanone]: the Emax was 93%. The concentration at half-maximal activity (AC50) under setting [1] was 24 nM.

As for `O=C([C@H](CO)c1cccc(F)c1F)N1Cc2cn(S(=O)(=O)c3cnn(CC(F)F)c3)nc2C1` [Compound 53, (2S)-1-{2-[1-(2,2-difluoroethyl)pyrazol-4-ylsulfonyl]-4H,6H-pyrrolo[3,4-c]pyrazol-5-yl}-2-(2,3-difluorophenyl)-3-hydroxypropan-1-one], the Emax is 100%. This compound came in with an AC50 under setting [1] of 5.2 nM.

Take `O=C([C@@H](CO)c1cccc(F)c1F)N1Cc2cn(S(=O)(=O)c3cnn(CC(F)F)c3)nc2C1` [Compound 54, (2R)-1-{2-[1-(2,2-difluoroethyl)pyrazol-4-ylsulfonyl]-4H,6H-pyrrolo[3,4-c]pyrazol-5-yl}-2-(2,3-difluorophenyl)-3-hydroxypropan-1-one]: the Emax was determined as 108%. This compound also came in with an AC50 under setting [1] of 260 nM.

`O=C([C@H](CO)c1cccc(F)c1Cl)N1Cc2cn(S(=O)(=O)c3cnn(CC(F)F)c3)nc2C1` [Compound 55, (2S)-2-(2-chloro-3-fluorophenyl)-1-{2-[1-(2,2-difluoroethyl)pyrazol-4-ylsulfonyl]-4H,6H-pyrrolo[3,4-c]pyrazol-5-yl}-3-hydroxypropan-1-one]: the AC50 turned out to be 5.1 nM and the Emax stood at 98%.

As for `O=C([C@@H](CO)c1cccc(F)c1Cl)N1Cc2cn(S(=O)(=O)c3cnn(CC(F)F)c3)nc2C1` [Compound 56, (2R)-2-(2-chloro-3-fluorophenyl)-1-{2-[1-(2,2-difluoroethyl)pyrazol-4-ylsulfonyl]-4H,6H-pyrrolo[3,4-c]pyrazol-5-yl}-3-hydroxypropan-1-one], the activity was half-maximal at 170 nM (AC50) and the Emax came out at 122%.

In the case of `CC(C)n1cc(S(=O)(=O)n2cc3c(n2)CN(C(=O)[C@H](CO)c2ccccc2F)C3)cn1` [Compound 57, (2S)-2-(2-fluorophenyl)-3-hydroxy-1-[2-(1-isopropylpyrazol-4-ylsulfonyl)-4H,6H-pyrrolo[3,4-c]pyrazol-5-yl]propan-1-one], the Emax amounted to 50%. Moreover, the activity under setting [1] was half-maximal at 6.7 nM (AC50).

On to `O=C([C@H](CO)c1ccccc1F)N1Cc2cn(S(=O)(=O)c3cnn(CCC(F)(F)F)c3)nc2C1` [Compound 58, (S)-2-(2-fluorophenyl)-3-hydroxy-1-(2-((1-(3,3,3-trifluoropropyl)-1H-pyrazol-4-yl)sulfonyl)-2,6-dihydropyrrolo[3,4-c]pyrazol-5(4H)-yl)propan-1-one], for which the AC50 was 30 nM and the Emax came to 59%.

On to `O=C([C@@H](CO)c1ccccc1F)N1Cc2cn(S(=O)(=O)c3cnn(CCC(F)(F)F)c3)nc2C1` [Compound 59, (R)-2-(2-fluorophenyl)-3-hydroxy-1-(2-((1-(3,3,3-trifluoropropyl)-1H-pyrazol-4-yl)sulfonyl)-2,6-dihydropyrrolo[3,4-c]pyrazol-5(4H)-yl)propan-1-one], for which the activity was half-maximal at 1600 nM (AC50) and the Emax worked out at 55%.

For `COCCn1cc(S(=O)(=O)n2cc3c(n2)CN(C(=O)[C@H](CO)c2ccccc2F)C3)cn1` [Compound 60, (2S)-2-(2-fluorophenyl)-3-hydroxy-1-{2-[1-(2-methoxyethyl)pyrazol-4-ylsulfonyl]-4H,6H-pyrrolo[3,4-c]pyrazol-5-yl}propan-1-one], the Emax is 74%. Half-maximal activity under setting [1] (AC50) was put at 28 nM.

Consider `COCCn1cc(S(=O)(=O)n2cc3c(n2)CN(C(=O)[C@@H](CO)c2ccccc2F)C3)cn1` [Compound 61, (2R)-2-(2-fluorophenyl)-3-hydroxy-1-{2-[1-(2-methoxyethyl)pyrazol-4-ylsulfonyl]-4H,6H-pyrrolo[3,4-c]pyrazol-5-yl}propan-1-one], for which the Emax is 49%. Under setting [1], this compound gave an AC50 of 3000 nM.

Take `O=C([C@H](CO)c1ccccc1F)N1Cc2cn(S(=O)(=O)c3ccn(CC(F)(F)F)n3)nc2C1` [Compound 62, (2S)-2-(2-fluorophenyl)-3-hydroxy-1-{2-[1-(2,2,2-trifluoroethyl)pyrazol-3-ylsulfonyl]-4H,6H-pyrrolo[3,4-c]pyrazol-5-yl}propan-1-one]: the Emax was 60%. Under setting [1], this compound had an AC50 of 70 nM.

As for `O=C([C@H](CO)c1ccccc1Cl)N1Cc2cn(S(=O)(=O)c3ccn(CC(F)(F)F)n3)nc2C1` [Compound 63, (2S)-2-(2-chlorophenyl)-3-hydroxy-1-[2-[1-(2,2,2-trifluoroethyl)pyrazol-3-ylsulfonyl]-4H,6H-pyrrolo[3,4-c]pyrazol-5-yl]propan-1-one], the Emax came to 85%. Also, the AC50 under setting [1] worked out at 50 nM.

`O=C(N1Cc2cn(S(=O)(=O)c3ccn(CC(F)F)n3)nc2C1)C1(c2ncccc2Cl)COC1` [Compound 64, 3-chloro-2-(3-{2-[1-(2,2-difluoroethyl)pyrazol-3-ylsulfonyl]-4H,6H-pyrrolo[3,4-c]pyrazole-5-carbonyl}oxetan-3-yl)pyridine]: the Emax is 100%. Besides, the activity under setting [1] was half-maximal at 12 nM (AC50).

Take `O=C(N1Cc2cn(S(=O)(=O)c3ccn(CC(F)(F)F)n3)nc2C1)C1(c2ncccc2Cl)COC1` [Compound 65, (3-(3-chloropyridin-2-yl)oxetan-3-yl)(2-((1-(2,2,2-trifluoroethyl)-1H-pyrazol-3-yl)sulfonyl)-2,6-dihydropyrrolo[3,4-c]pyrazol-5(4H)-yl)methanone]: the Emax amounted to 42%. In addition, under setting [1], half-maximal activity (AC50) was put at 110 nM.
